Measurements: the supplement of paper PMC8149375

Columns and labels:
Conditions in all cases: treatment: drug alone; 5 days
786-O [1] = test: GI50, drug alone; higher = less potent
Method: (§1)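 Primary HTS: 8 RCC cell lines treated with 8 doses (up to 10 uM) of each library drug alone for 5 days; viability read by CellTiter-Glo and normalised to DMSO. GI50 was fitted with XLfit (4-parameter), AUC is the area under the dose-response curve, and minimum viability is the lowest fraction of DMSO viability across doses.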

UO-31 [2] = test: GI50, drug alone; higher = less potent
Method: as §1

CAKI-1 [3] = test: GI50, drug alone; higher = less potent
Method: as §1

A498 [4] = test: GI50, drug alone; higher = less potent
Method: as §1

SN12C [5] = test: GI50, drug alone; higher = less potent
Method: as §1

769-P [6] = test: GI50, drug alone; higher = less potent
Method: as §1

TK-10 [7] = test: GI50, drug alone; higher = less potent
Method: as §1

ACHN [8] = test: GI50, drug alone; higher = less potent
Method: as §1

786-O [9] = test: minimum viability across doses, drug alone, relative to DMSO (fraction); higher = less growth inhibition
Method: as §1

UO-31 [10] = test: as above
Method: as §1

CAKI-1 [11] = test: as above
Method: as §1

A498 [12] = test: as above
Method: as §1

SN12C [13] = test: as above
Method: as §1

769-P [14] = test: as above
Method: as §1

TK-10 [15] = test: as above
Method: as §1

ACHN [16] = test: as above
Method: as §1

786-O [17] = test: AUC of dose-response viability curve, drug alone (arbitrary (AUC of normalised viability)); higher = less growth inhibition
Method: as §1

UO-31 [18] = test: as above
Method: as §1

CAKI-1 [19] = test: as above
Method: as §1

A498 [20] = test: as above
Method: as §1

SN12C [21] = test: as above
Method: as §1

769-P [22] = test: as above
Method: as §1

TK-10 [23] = test: as above
Method: as §1

ACHN [24] = test: as above
Method: as §1

Compound	GI50, drug alone (786-O [1]) [µM]	GI50, drug alone (UO-31 [2]) [µM]	GI50, drug alone (CAKI-1 [3]) [µM]	GI50, drug alone (A498 [4]) [µM]	GI50, drug alone (SN12C [5]) [µM]	GI50, drug alone (769-P [6]) [µM]	GI50, drug alone (TK-10 [7]) [µM]	GI50, drug alone (ACHN [8]) [µM]	minimum viability across doses (786-O [9])	minimum viability across doses (UO-31 [10])	minimum viability across doses (CAKI-1 [11])	minimum viability across doses (A498 [12])	minimum viability across doses (SN12C [13])	minimum viability across doses (769-P [14])	minimum viability across doses (TK-10 [15])	minimum viability across doses (ACHN [16])	AUC of dose-response viability curve (786-O [17])	AUC of dose-response viability curve (UO-31 [18])	AUC of dose-response viability curve (CAKI-1 [19])	AUC of dose-response viability curve (A498 [20])	AUC of dose-response viability curve (SN12C [21])	AUC of dose-response viability curve (769-P [22])	AUC of dose-response viability curve (TK-10 [23])	AUC of dose-response viability curve (ACHN [24])
Cc1cc(C(=O)NOCCO)c(Nc2ccc(I)cc2F)n(C)c1=O [AZD8330]	0.0573	> 10	0.134	> 10	0.865	0.385	0.123	0.14	0.31	0.527	0.209	0.789	0.386	0.281	0.317	0.299	1.78	3.95	1.73	3.63	2.36	2.04	1.74	1.69
C=CC(=O)Nc1ccc2ncnc(Nc3ccc(OCc4cccc(F)c4)c(Cl)c3)c2c1.Cc1ccc(S(=O)(=O)O)cc1 [AST-1306]	2.38	> 10	3.35	> 10	4.97	1.72	0.884	3.11	0.0947	1.05	0.174	0.922	0.188	0.048	0.109	0.315	2.59	4.13	2.76	3.99	3.03	2.61	2.33	2.9
Cc1ccc(S(=O)(=O)Nc2nc3ccccc3nc2Nc2ccc3nsnc3c2)cc1 [XL147]	> 10	> 10	> 10	> 10	> 10	> 10	> 10	> 10	0.768	1.13	1.03	0.933	0.92	0.884	0.902	0.811	3.2	4.38	3.82	3.61	3.52	3.3	3.52	3.19
FC(F)(F)c1ccc(Nc2nc3cc(Oc4ccnc(-c5ncc(C(F)(F)F)[nH]5)c4)ccc3[nH]2)cc1 [Raf265 derivative]	5.37	1.05	9.39	> 10	> 10	9.97	> 10	8.48	0.141	0.0014	0.298	1.04	0.651	0.473	0.534	0.142	2.69	3.5	3.62	4.16	3.32	3.24	3.18	3.47
c1cncc(CN2CCC(n3ncc4c(N5CCOCC5)nc(-c5ccc6[nH]ccc6c5)nc43)CC2)c1 [WAY-600]	0.372	1.15	0.624	5.84	1.9	2.04	0.744	0.689	0.00124	0.00348	0.0276	0.0996	0.164	0.0444	0.0825	0.0599	1.79	3.04	2.23	4.54	2.51	2.73	2.23	2.32
Cc1ccccc1-n1c(Cn2ncc3c(N)ncnc32)nc2cccc(C)c2c1=O [PIK-293]	> 10	> 10	> 10	> 10	> 10	> 10	> 10	> 10	0.581	1.2	0.902	0.982	0.837	0.949	0.734	0.928	2.42	4.72	3.46	3.9	3.16	3.49	3.07	3.53
COc1ccc(-c2ccc3ncc4c(c3c2)n(-c2ccc(N3CCNCC3)c(C(F)(F)F)c2)c(=O)n4C)cn1.O=C(O)/C=C\C(=O)O [NVP-BGT226]	0.0129	0.0113	0.0272	0.0291	0.0158	0.0362	0.0202	0.0149	0.00447	0.00819	0.00344	0.0133	0.00358	0.00969	0.00394	0.00135	0.728	0.578	1.03	1.21	0.857	1.22	0.903	0.785
CN1CCN(c2ccc([N+](=O)[O-])c3no[n+]([O-])c23)CC1	> 10	> 10	> 10	> 10	> 10	> 10	> 10	> 10	0.536	0.867	0.881	0.889	0.832	0.865	0.3	0.822	2.38	3.8	3.27	3.92	3.13	2.59	2.91	2.98
CCN(CCO)CCCOc1ccc2c(Nc3cc(CC(=O)Nc4cccc(F)c4)n[nH]3)ncnc2c1 [Barasertib (AZD1152-HQPA)]	0.194	> 10	2.08	> 10	> 10	4.36	> 10	> 10	0.0818	0.767	0.449	1.04	0.74	0.408	0.703	0.583	1.76	3.35	2.49	4.38	3.06	2.81	2.94	2.71
